This is an account of results in PubChem BioAssay (NCI).

Where “and” joins values, the source holds several entries; their conditions need not be identical. Equal values may be shown once.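 Grown in 96-well plates, cells were treated for 48 hours with each compound at five concentrations. Insufficient inhibition: endpoint recorded as highest concentration tested. The concentration for 50% growth inhibition is given as GI50. TGI marks complete inhibition of growth.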 Some results are limits rather than exact numbers.

Some test systems named below: DMS 114 small cell lung; HCT-116 colon; UACC-62 melanoma; DLD-1 colon; SK-MEL-5 melanoma; TK-10 renal; KM20L2 colon; HOP-62 NSCLC; LXFL 529 NSCLC; T-47D breast; RXF 393 renal; HOP-18 NSCLC.
Common to all, as to assay: NCI anticancer screen, dose series, 48 h

`O=C(CC(=O)c1ccccc1NC1=Cc2ccccc2C(=O)C1=O)C(=O)NC1=C(Cl)C(=O)c2ccccc2C1=O`: the TGI with DMS 114 small cell lung was found to be 4 µM; in the assay on HCT-116 colon, 6.37 µM; with UACC-62 melanoma it was 3.97 µM; with DLD-1 colon, 11.7 µM; in the assay on SK-MEL-5 melanoma it was 2.05 µM; with TK-10 renal, 43.6 µM. For the same compound, the TGI with KM20L2 colon stood at 30.5 µM; in the assay with HOP-62 NSCLC it was 17.9 µM; in the assay on LXFL 529 NSCLC it was 8.6 µM; in the assay with T-47D breast, 30.6 µM; with RXF 393 renal, 7.5 µM.
Consider `CN(C)CCNC(=O)c1cccc2c1nc(-c1ccccn1)c1ccccc12`, for which the TGI stood at 36.3 µM in the assay with DMS 114 small cell lung; 23 µM in the assay with HCT-116 colon; 31.4 µM with UACC-62 melanoma; 31 µM with DLD-1 colon; 28.7 µM with SK-MEL-5 melanoma; 36.2 µM with HOP-62 NSCLC. For the same compound, the TGI in the assay on HOP-18 NSCLC came to 96.8 µM; in the assay with RXF 393 renal, 29.2 µM.
For `COC(=O)[C@H](Cc1ccccc1)NC(=O)[C@@H](OC)[C@@H]1Cc2cc3cc(OC4CC(OC5CC(O)C(O)C(C)O5)C(O)C(C)O4)c(C)c(O)c3c(O)c2C(=O)[C@H]1OC1CC(OC2CC(OC3CC(C)(O)C(O)C(C)O3)C(O)C(C)O2)C(O)C(C)O1` (some centres undefined), the GI50 is 0.00587 µM with HCT-116 colon; 0.00473 µM with UACC-62 melanoma; 0.00691 µM in the assay on SK-MEL-5 melanoma; 0.0439 µM in the assay with TK-10 renal; 0.0147 µM in the assay with HOP-62 NSCLC; 0.019 µM in the assay on T-47D breast. In addition, the GI50 with RXF 393 renal was 0.0046 µM. Also, the TGI is more than 14.3 µM with HCT-116 colon; 0.0209 µM in the assay on UACC-62 melanoma; 0.0357 µM with SK-MEL-5 melanoma; more than 14.3 µM with TK-10 renal; 11.4 µM in the assay with HOP-62 NSCLC; more than 14.3 µM in the assay on T-47D breast. For the same compound, in the assay on RXF 393 renal, the TGI stood at 0.0252 µM.
On to `O=C(O/N=C1/CCCC/C1=C\c1ccccc1)c1ccc(Cl)cc1`, for which the TGI in the assay with HCT-116 colon, with UACC-62 melanoma, in the assay with DLD-1 colon, in the assay with SK-MEL-5 melanoma, in the assay on TK-10 renal and with KM20L2 colon was more than 100 µM each time. Moreover, the TGI in the assay with HOP-62 NSCLC, in the assay on LXFL 529 NSCLC, in the assay on HOP-18 NSCLC and with RXF 393 renal was more than 100 µM each time.
With `C=C(C(=O)OC)[C@@H]1C[C@@H](O)[C@]2(C)CC/C=C(\C)CCC[C@H](C)[C@H](O)C1O2`, the GI50 was 21.1 µM in the assay on HCT-116 colon; 40.5 µM in the assay on UACC-62 melanoma; 26.3 µM in the assay on SK-MEL-5 melanoma; 19.6 µM in the assay with TK-10 renal; more than 100 µM with HOP-62 NSCLC; 52.8 µM with T-47D breast. For the same compound, the GI50 in the assay with RXF 393 renal was 53.3 µM. Further, the TGI in the assay with HCT-116 colon was 58 µM; in the assay on UACC-62 melanoma, more than 100 µM; in the assay with SK-MEL-5 melanoma it was 79.5 µM; in the assay on TK-10 renal it was 48.8 µM; in the assay with HOP-62 NSCLC, more than 100 µM; in the assay on T-47D breast, more than 100 µM. Further, in the assay on RXF 393 renal, the TGI was more than 100 µM.
As to `Oc1ccc(-c2nc3ccc4[nH]ncc4c3c3c2CCCC3)c2cccnc12`, the GI50 was 0.228 µM in the assay on HCT-116 colon; 0.512 µM in the assay on UACC-62 melanoma; 0.597 µM in the assay with SK-MEL-5 melanoma; 0.496 µM in the assay on TK-10 renal; 0.16 µM in the assay with HOP-62 NSCLC; 0.697 µM in the assay with T-47D breast. Besides, in the assay on RXF 393 renal, the GI50 was 0.266 µM. Further, the TGI with HCT-116 colon was 4.14 µM; in the assay on UACC-62 melanoma, 1.97 µM; in the assay with SK-MEL-5 melanoma, 1.56 µM; in the assay on TK-10 renal it was 7.01 µM; with HOP-62 NSCLC, 1.71 µM; in the assay with T-47D breast it was 4.67 µM. Besides, in the assay with RXF 393 renal, the TGI was found to be 2.44 µM.
As for `COc1ccc(Cn2cc(Cn3c(=O)c(-c4nc5ccccc5[nH]4)cc4ccccc43)nn2)c(OC)c1OC`, the GI50 in the assay on HCT-116 colon is 0.094 µM and 0.0954 µM; with UACC-62 melanoma it was 0.672 µM; with SK-MEL-5 melanoma it was 0.307 µM and 0.274 µM; with TK-10 renal, 0.572 µM and 1.02 µM; with HOP-62 NSCLC, 0.179 µM and 0.525 µM; in the assay with T-47D breast it was 0.154 µM and 0.804 µM. The GI50 in the assay with RXF 393 renal is 0.129 µM. Besides, the TGI is 1.25 µM and 1.73 µM in the assay on HCT-116 colon; 5.42 µM in the assay with UACC-62 melanoma; 1.04 µM and 1.45 µM in the assay on SK-MEL-5 melanoma; 0.938 µM and 3.87 µM in the assay on HOP-62 NSCLC; 0.49 µM in the assay on RXF 393 renal.
As for `N#Cc1nc(Nc2ccc([N+](=O)[O-])cc2)sc1N`, the TGI was more than 100 µM with HCT-116 colon; 50.8 µM with UACC-62 melanoma; more than 100 µM with DLD-1 colon; 12.7 µM in the assay on SK-MEL-5 melanoma; more than 77 µM in the assay with TK-10 renal; more than 100 µM in the assay with KM20L2 colon. For the same compound, the TGI in the assay on HOP-62 NSCLC is 75.8 µM; in the assay with LXFL 529 NSCLC, more than 100 µM; in the assay on HOP-18 NSCLC it was more than 100 µM.
On to `COc1ccc(-c2nn(-c3cccc(NC(=O)Nc4cccc(C(F)(F)F)c4)c3)cc2-c2ccncc2)cc1Cl`, for which the GI50 is 1.31 µM in the assay on HCT-116 colon; 2.02 µM with UACC-62 melanoma; 1.57 µM with SK-MEL-5 melanoma; 4.1 µM with TK-10 renal; 2.81 µM in the assay on HOP-62 NSCLC; 1.17 µM in the assay on T-47D breast. For the same compound, the GI50 in the assay with RXF 393 renal is 1.33 µM. Also, the TGI with HCT-116 colon is 9.04 µM; with UACC-62 melanoma, 5.59 µM; with SK-MEL-5 melanoma, 3.22 µM; in the assay on TK-10 renal, more than 100 µM; in the assay with HOP-62 NSCLC it was 10.9 µM; with T-47D breast it was 7.69 µM. The TGI in the assay with RXF 393 renal turned out to be 6.37 µM.
For the compound `COc1cccc(C2C(C#N)=C(N)Oc3cc(OC)ccc32)c1` (centres undefined), the GI50 was 0.0479 µM with HCT-116 colon; 0.0682 µM with UACC-62 melanoma; 0.0455 µM in the assay on SK-MEL-5 melanoma; 11.8 µM in the assay on TK-10 renal; 0.0418 µM in the assay on HOP-62 NSCLC; 0.0437 µM with T-47D breast. Moreover, the GI50 in the assay on RXF 393 renal is 0.026 µM. The TGI was 12.4 µM with HCT-116 colon; more than 94.9 µM in the assay on UACC-62 melanoma; 1.69 µM in the assay with SK-MEL-5 melanoma; 74.1 µM in the assay on TK-10 renal; more than 76.6 µM in the assay with HOP-62 NSCLC; 63.3 µM with T-47D breast. Moreover, the TGI in the assay with RXF 393 renal was determined as 81.1 µM.
As to `COc1ccc2c(c1)C(=O)c1c-2n(CCCCl)c(=O)c2cc(N(C)C)ccc12`, the GI50 in the assay on HCT-116 colon is 43.9 µM; in the assay with UACC-62 melanoma, 41 µM; with SK-MEL-5 melanoma, 11.2 µM; in the assay on TK-10 renal, 30.9 µM; in the assay with HOP-62 NSCLC, 26.6 µM; with T-47D breast, 34.6 µM. Also, the GI50 in the assay on RXF 393 renal was 25.5 µM. Moreover, the TGI in the assay on HCT-116 colon was more than 100 µM; in the assay on UACC-62 melanoma, more than 100 µM; with SK-MEL-5 melanoma, 34.6 µM; in the assay with TK-10 renal it was more than 100 µM; in the assay with HOP-62 NSCLC, 69 µM; in the assay with T-47D breast, more than 100 µM. Moreover, the TGI in the assay with RXF 393 renal came out at 90.7 µM.
